Nine molecules from patent publication US6335019B1, “Methods for treating sensitivity to protein allergen using peptides which include a T cell epitope recognized by a T cell receptor specific for the protein allergen” (Immulogic Pharmaceutical Corp., priority 1989, dated 2002) can be followed below.

Assay [1] deals with ragweed pollen-specific T cells of ragweed allergic patients. Put plainly: Secondary and tertiary T cell proliferation assays of a panel of ragweed allergic patients with synthetic peptides. The following applies: for Stimulation of ragweed allergic patient T cells by synthetic peptide (in words): in vitro proliferation assays; for NUMBER POSITIVE (patients with T cell response to peptide) / POSITIVE % (patients whose T cells are stimulated by peptide): positive = T cell proliferative response greater than 2-fold above culture medium control. In kind it is cell-based, human. How it is done: (§1) Peripheral blood mononuclear cells (PBMC) were purified from 60 ml of heparinized blood from ragweed-allergic patients. PBMC were subsequently treated as described below, although in individual cases, the length of time of cultivation with IL-2 and IL-4 and the specific ragweed proteins and peptides used for stimulation varied. As an example, ten ml of patient 222 PBMC at 10^6/ml were cultured at 37° C. for 7 days in the presence of 20 micrograms aqueous ragweed pollen extract/ml RPMI-1640 supplemented with 5% pooled human AB serum. Viable cells were purified by Ficoll-Hypaque centrifugation and cultured for three weeks at 5 units recombinant human IL-2/ml and 5 units recombinant human IL-4/ml. The resting T cells were then restimulated (secondary) with 20 micrograms aqueous ragweed pollen extract/ml at a density of 2×10^5 cells/ml in the presence of X-irradiated (3500 RADS) autologous PBMC (5×10^5/ml) for three days, purified by Ficoll-Hypaque centrifugation and grown in 5 units IL-2/ml and 5 units IL-4/ml for two weeks. For assay, 2×10^4 resting secondary T cells were restimulated (tertiary) in the presence of 5×10^4 X-irradiated (3500 RADS) autologous PBMC or 2×10^4 autologous Epstein-Barr virus-transformed B cells (20,000 RADS) with various concentrations of allergen or their fragments in a volume of 200 microliters in 96-well round bottom assay plates for 3 days. Each well then received 1 microCurie tritiated (methyl) thymidine for 16 hours. The counts incorporated were collected onto glass fiber filters and processed for liquid scintillation counting. […] Antigens used: IPC aqueous pollen extract (pollen), Hollister-Stier ragweed skin test extract (RWST), ALK cat epithelium skin test extract (CST), affinity 4B5/B7 antibody purified (dialyzed) Amb a I (B7), and chromatographically purified Amb a I and (Amb a I). Medium only control is shown as a line with no symbol. Alternatively, PBMC were sometimes carried only into a secondary assay (as outlined above for a tertiary assay) with 20 micrograms aqueous pollen extract 7 days, followed by culture in 5 units IL-2/ml and 5 units IL-4/ml for 2-3 weeks. […] Secondary and tertiary assays of a panel of ragweed allergic patients were performed using synthetic peptides derived from the sequences of various ragweed pollen proteins. […] Another four peptides (RAE15.6, RAE3.D, RAE28.1, RAE26.15) which are also derived from the sequence of the same three cDNA's could stimulate 35 to 58% of the patients' T cells. One peptide (RAE4) which is derived from the cDNA of IPC Clone 5 could also stimulate 25% of the patients' T cells. […] By this method it is possible to identify novel therapeutic and diagnostics entities for use in the treatment and the diagnosis of ragweed allergy.

Assay [2] has as its system T cells from patients allergic to ragweed. In words: T cell proliferation of ragweed allergic patient T cells to ragweed proteins and recombinant lysates (tritiated thymidine). In kind it is cell-based, human.
Source text: T cells from patients allergic to ragweed, previously stimulated with a mixed ragweed pollen extract, can recognize and proliferate in response to pollen extract, ragweed skin test reagent (RWST), affinity purified Amb a I protein and crude bacterial lysates containing recombinant Amb a I gene products IA, IB and IC (Table 4). […] The use of crude bacterial lysates as antigens precludes a firm conclusion form the negative responses, since the relative levels of recombinant proteins in lysate have not been determined.
as §1

In assay [3] the test system is human IgE (ragweed allergic patient sera). In words: SDS-PAGE Western blot (and ELISA) of ragweed allergic patient IgE binding to pollen, affinity purified and recombinant Amb a I / Amb a II. Also noted: key to IgE binding, summarized Western blot data: −: no signal over background; +−: barely discernable over background; +: clearly positive; ++: strongly positive; +++: highly positive. How it is done: As represented in FIG. 1A, a selected monoclonal antibody (designated 4B5/B7) which recognizes an Amb a I preparation unsubjected to denaturing conditions was used to affinity purify from pollen extract a single protein, which is referred to as affinity purified Amb a I. This was carried out, using known techniques, by producing the desired monoclonal antibody, isolating it in large quantities from ascites and immobilizing it on Sepharose (Pharmacia). Aqueous pollen extract was passed over the monoclonal antibody-containing column and a protein species was eluted.
Furthermore, full-length and truncated cDNAs encoding several members of the Amb a I multigene family, as well as Amb a II, were cloned in-frame into the expression vector pTrc99 (Amann et al. Gene, 69:301-315, (1988)) and transformed into the JM109 host. Expression of recombinant Amb a I and Amb a II protein was induced by 1 mM isopropyl-β-D-thiogalactopyranoside, cells were harvested, lysozyme treated, sonicated and insoluble inclusion bodies recovered by a low speed centrifugation. Recombinant Amb a I and Amb a II protein present in the recovered pellet was solubilized in buffer containing 8M urea, 50 mM Tris HC1 pH8.0, 50 mM NaCl, 1 mM EDTA, 1 mM dithiothreitol, 1 mM phenylmethylsulfonyl fluoride. After solubilization, the crude urea lysate was dialyzed at 4° C. against PBS. […] This antigenic cross-reactivity is consistent with the observed sequence homology of the cDNAs (see FIG. 16).
Comparison of human IgE binding to recombinant Amb a I and Amb a II proteins with anti-peptide and monoclonal anti-Amb a I antibodies have provided data consistent with the conclusion that the N-terminal portion (historically referred to as the β-region) of Amb a IA includes the major IgE eptiope(s).
Affinity purified Amb a I was electrophoresed, Western transferred (Towbin et al., Proc. Natl. Acad. Sci. USA, 76:4350 (1979)) and probed with a variety of antibodies, including IgE from an allergic patient (FIG. 17). In pollen extract Amb a I is not only present as an intact 38-KD species, but also characterized by its component 26KD alpha chains and 12-KD beta chains which are formed by enzymatic cleavage. The intact 38-KD species and the alpha chain are clearly detected using rabbit anti-Amb a I, polyclonal affinity purified anti-RAE 16 and monoclonal anti-Amb a I JBIE3-4 (FIG. 17); RAE 16 peptide has the sequence RTDKDLLENGAIC derived from amino-acids […] of Amb a IB, FIG. 16). Affinity purified Amb a I (partial sequence presented in Table 1) as well as chromatographically purified Amb a II (partial sequence presented in Table 2) are bound on Western blots by these antibodies as well as by patient IgE (FIG. 17). The goat anti-Amb a I polyclonal antibody also binds multiple Amb a I and Amb a II species on a two dimensional Western blot of pollen extract (FIG. 18). The Western blot was performed as outlined below. […]
A general note: In western blotting, separated proteins are transferred to a membrane and probed.

For the molecule ETRRSLKTSGAYNIIDGCWRGKAD [RAE 24.E], in assay [1], the “Stimulation of ragweed allergic patient T cells by synthetic peptide (in words)” value (from here on “Stimulation”) is “could not stimulate any”, the “NUMBER POSITIVE (patients with T cell response to peptide)” value (from here on “NUMBER POSITIVE”) came out at 0 and the “POSITIVE % (patients whose T cells are stimulated by peptide)” value (from here on “POSITIVE %”) turned out to be 0%.

For the molecule “FFPILGGITEVKDNDNSVDFC [RAE 4, synthetic peptide deduced from IPC Clone 5]”, in assay [1], the “Stimulation” value is “stimulates”, the “NUMBER POSITIVE” value is on record as 7 and the “POSITIVE %” value was determined as 25%. Further, the “Stimulation” value in assay [1] (listed as RAE4) was “could be stimulated”.

Regarding GFFQVVNNNYDRWGTYA [RAE 26.15], in assay [1], the “NUMBER POSITIVE” value came to 14 and the “POSITIVE %” value came out at 58%.

For GKADWAENRC [RAE 3.D], in assay [1], the “NUMBER POSITIVE” value worked out at 13 and the “POSITIVE %” value is reported as 37%.

As to LENGAIFVASGVDPVLTPEQ [RAE 28.1], in assay [1], the “NUMBER POSITIVE” value came to 17 and the “POSITIVE %” value was determined as 52%.

In the case of LNQELVVNSDKTIDGRGVK [RAE 45.15], in assay [1], the “Stimulation” value was “could not stimulate any”, the “NUMBER POSITIVE” value came to 0 and the “POSITIVE %” value amounted to 0%.

With RTDKDLLENGAIC [RAE 16.6], in assay [1], the “Stimulation” value is on record as “could not stimulate any”, the “NUMBER POSITIVE” value turned out to be 0 and the “POSITIVE %” value stood at 0%.

As for YTVTSDKDDDVANC [RAE 15.6], in assay [1], the “NUMBER POSITIVE” value amounted to 7 and the “POSITIVE %” value turned out to be 35%.

B1: Amb a IA(t): truncated recombinant Amb a IA, amino acid 70-398, E. coli expressed, used as crude bacterial lysate (protein)
chain: DCAQGFGKGTVGGKDGDIYTVTSELDDDVANPKEGTLRFGAAQNRPLWIIFERDMVIRLDKEMVVNSDKTIDGRGAKVEIINAGFTLNGVKNVIIHNINMHDVKVNPGGLIKSNDGPAAPRAGSDGDAISISGSSQIWIDHCSLSKSVDGLVDAKLGTTRLTVSNSLFTQHQFVLLFGAGDENIEDRGMLATVAFNTFTDNVDQRMPRCRHGFFQVVNNNYDKWGSYAIGGSASPTILSQGNRFCAPDERSKKNVLGRHGEAAAESMKWNWRTNKDVLENGAIFVASGVDPVLTPEQSAGMIPAEPGESALSLTSSAGVLSCQPGAPC
Consider B1, for which the “Stimulatory response of human T cells (proliferation compared to medium control)” value in assay [2] (patient 151 2° (secondary assay)) is “+ (2-4 fold)”; in assay [2] (patient 222 2° (secondary assay)), “++ (4-10 fold)”; in assay [2] (patient 295 2° (secondary assay)), “+ (2-4 fold)”; in assay [2] (patient 296 2° (secondary assay)) it was “+++ (>10 fold)”; in assay [2] (patient 314 2° (secondary assay)), “+++ (>10 fold)”; in assay [2] (patient 316 2° (secondary assay)), “+++ (>10 fold)”. The “Stimulatory response of human T cells (proliferation compared to medium control)” value in assay [2] (patient 320 2° (secondary assay)) and in assay [2] (patient 321 2° (secondary assay)) was “++ (4-10 fold)” in each case. In assay [3] (Western blot (FIG. 17) and/or ELISA, ragweed allergic patient IgE), the “Human IgE binding (in words)” value was “less well than the full-length Amb a IA”. Besides, the “IgE binding, summarized Western blot data” value is recorded as “−” in assay [3] (patient 151), “+−” in assay [3] (patient 222), “+” in assay [3] (patient 291) and “+” in assay [3] (patient 295).
